According to PMC8087795 (2021):

How the values were obtained:
[1] = test system: oligoribonucleotide 3 (biotinylated truncated pre-miR-21) (RNA, miRNA) CCGACUGAUGUUGACUGUUGAAUCUCAUGGCAACACCAGUCGG; test: SPR steady state; settings: 80 mM NaCl, 100 mM total Na+; 20 mM sodium cacodylate, pH 7.2; equivalent affinity for all sites; per site
[2] = test system: oligoribonucleotide 4 (biotinylated FRET-pair truncated pre-miR-21) (RNA, miRNA, tC^O (cytosine analogue, donor) at 15; tCnitro (cytosine analogue, acceptor) at 24) CCGACUGAUGUUGACUGUUGAAUCUCAUGGCAACACCAGUCGG; test: SPR steady state; settings: 80 mM NaCl, 100 mM total Na+; 20 mM sodium cacodylate, pH 7.2; equivalent affinity for all sites; per site
[3] = test system: oligoribonucleotide 7 (stem FRET-labelled truncated pre-miR-21) (RNA, miRNA, tC^O (cytosine analogue, donor) at 15; tCnitro (cytosine analogue, acceptor) at 37) CCGACUGAUGUUGACUGUUGAAUCUCAUGGCAACACCAGUCGG; test: interbase-FRET, change in FRET efficiency; settings: 80 mM NaCl, 100 mM total Na+; 20 mM sodium cacodylate, pH 7.2; 1 µM RNA, 15 µM compound; single concentration, not a constant
[4] = test system: oligoribonucleotide 5 (hairpin loop FRET-labelled truncated pre-miR-21) (RNA, miRNA, tC^O (cytosine analogue, donor) at 24; tCnitro (cytosine analogue, acceptor) at 31) CCGACUGAUGUUGACUGUUGAAUCUCAUGGCAACACCAGUCGG; test: interbase-FRET, change in FRET efficiency; settings: 80 mM NaCl, 100 mM total Na+; 20 mM sodium cacodylate, pH 7.2; 1 µM RNA, 15 µM compound; single concentration, not a constant
[5] = test system: oligoribonucleotide 2 (truncated pre-miR-21, 43 nt) (RNA, miRNA) CCGACUGAUGUUGACUGUUGAAUCUCAUGGCAACACCAGUCGG; test: ITC; settings: 80 mM NaCl, 100 mM total Na+; 20 mM sodium cacodylate, pH 7.2, 25 °C; 10 µM RNA; 1:1 fit

Compound	Kd [1] [µM]	Kd [2] [µM]	ΔFRET15µM [3]	ΔFRET15µM [4]	Kd [5] [µM]
CCN[C@@H]1C[C@H](N)[C@@H](O[C@H]2OC(CN)=CC[C@H]2N)[C@H](O)[C@H]1O[C@H]1OC[C@](C)(O)[C@H](NC)[C@H]1O	28 ± 35	27 ± 34			
CN[C@@H]1[C@@H](O)[C@@H](O[C@@H]2[C@@H](O)[C@H](O[C@H]3OC(CN)=CC[C@H]3N)[C@@H](N)C[C@H]2N)OC[C@]1(C)O	4 ± 2	4 ± 2	0.041	0.023	
CN[C@@H]1[C@@H](O)[C@@H](O[C@@H]2[C@@H](O)[C@H](O[C@H]3O[C@H]([C@@H](C)O)[C@@H](O)[C@H](O)[C@H]3N)[C@@H](N)C[C@H]2N)OC[C@]1(C)O	101 ± 44	94 ± 57			
CN[C@@H]1[C@H](O[C@H]2[C@H](O[C@H]3[C@H](O)[C@@H](O)[C@H](N=C(N)N)[C@@H](O)[C@@H]3N=C(N)N)O[C@@H](C)[C@]2(O)C=O)O[C@@H](CO)[C@H](O)[C@H]1O	134 ± 76	115 ± 80	0.008	0.004	

The next lines start with the values.

Kd [1] [µM]	Kd [2] [µM]	ΔFRET15µM [3]	ΔFRET15µM [4]	Kd [5] [µM]	Compound
22 ± 12	23 ± 12				CN[C@@H]1[C@@H](O[C@H]2O[C@H](CO)[C@@H](N)[C@H](O)[C@H]2O)O[C@H]2C[C@@H](N)[C@@H](O[C@H]3[C@H](O)[C@@H](O)[C@H](N)C[C@@H]3N)O[C@@H]2[C@@H]1O
15 ± 4	14 ± 3				NCC[C@H](O)C(=O)N[C@@H]1C[C@H](N)[C@@H](O[C@H]2O[C@H](CN)[C@@H](O)[C@H](O)[C@H]2O)[C@H](O)[C@H]1O[C@H]1O[C@H](CO)[C@@H](O)[C@H](N)[C@H]1O
3.9 ± 2.8	2.7 ± 1.7	0.045	0.042	5.2 ± 0.8	NC[C@@H]1O[C@H](O[C@H]2[C@@H](O)[C@H](O[C@@H]3[C@@H](O)[C@H](N)C[C@H](N)[C@H]3O[C@H]3O[C@H](CN)[C@@H](O)[C@H](O)[C@H]3N)O[C@@H]2CO)[C@H](N)[C@@H](O)[C@@H]1O
8 ± 4	8 ± 5	0.049	0.024		NC[C@H]1O[C@H](O[C@H]2[C@H](O)[C@@H](O[C@H]3O[C@H](CO)[C@@H](O)[C@H](N)[C@H]3O)[C@H](N)C[C@@H]2N)[C@H](N)C[C@@H]1O
44 ± 18	45 ± 23				NC[C@H]1O[C@H](O[C@H]2[C@H](O)[C@@H](O[C@H]3O[C@H](CO)[C@@H](O)[C@H](N)[C@H]3O)[C@H](N)C[C@@H]2N)[C@H](O)[C@@H](O)[C@@H]1O
90 ± 73	78 ± 67				NC[C@H]1O[C@H](O[C@H]2[C@H](O[C@@H]3O[C@H](CO)[C@@H](O)[C@H]3O)[C@@H](O)[C@H](N)C[C@@H]2N)[C@H](N)[C@@H](O)[C@@H]1O
